# Results published in article PMC12380353, “MK-8527 is a novel inhibitor of HIV-1 reverse transcriptase translocation with potential for extended-duration dosing” (PLOS Biology, 2025).
# “And” between values parts separate entries of the source, which are not always exact repeats. Equal entries are not always repeated. Where two headings read alike, the source gives them in different places.
# Assays:
# HIV-1IIIB = assay: Cytoprotection assay in CEM-SS cells, HIV-1; format: cell-based; conditions: Human immunodeficiency virus 1, 144 h, 6 days, read-out: Antiviral potency as IC50, HIV-1 – CEM-SS cells
# Procedure: The antiviral activity of MK-8527 against HIV-1 and HIV-2 was determined in a cytoprotection assay in CEM-SS cells at ImQuest BioSciences (Fredrick, MD, USA). Briefly, CEM-SS cells (National Institute of Health AIDS Research and Reference Reagent Program) were passaged in RPMI 1640 supplemented with 10% heat-inactivated FBS, 2 mM L-glutamine, 100 U/mL penicillin and 100 µg/mL streptomycin prior to use in the antiviral assay. On the day preceding the assay, the cells were split 1:2 to ensure they were in an exponential growth phase at the time of infection. The cells were resuspended at 2.5 × 10^3 cells per well in cell culture medium and added to the drug-containing microtiter plates at 50 µL per well. MK-8527 was tested in triplicate for each experiment, with 12 test concentrations added at 100 µL per well.
# Lymphocyte-tropic virus strains HIV-1IIIB or HIV-2ROD (NIH AIDS Research and Reference Reagent Program) were diluted into tissue culture medium such that the amount of virus added to each well in a volume of […] corresponded to the amount determined to yield 85% to 95% cell killing in the untreated virus control wells at 6–7 days. Virus was added immediately after cells were added to the 96-well microtiter plates.
# The IC50 for MK-8527 antiviral activity was determined using 4-parameter curve fit calculations.
# HIV-1 subtypes = conditions: for Fold-Change in IC50 vs CNDO control virus: listed as MK-8527
# Procedure: Compounds were evaluated for antiviral activity against a panel of clinical isolates representing multiple HIV-1 subtypes at Monogram Biosciences (South San Francisco, CA, USA). The isolates were selected based on an absence of resistance-associated mutations in RT and each was constructed as a pooled resistance test vector designed to preserve the quasispecies present in the initial clinical isolate.
# [1] = test system: panel of 114 enzyme and receptor binding assays; assay: Off-target panel of 114 enzyme and receptor-binding assays; conditions: for Off-target activity: 10 μM, panel of 114 assays; for IC50: tested at 10 µM, 114 assays, read-out: IC50 in all off-target assays
# Procedure: MK-8527 and MK-8527-TP were evaluated at 10 µM final concentration at Eurofins Panlabs (Taipei, Taiwan) for activity against a panel of 114 enzyme, radioligand binding, and cellular assays, including 70 G-protein coupled receptor, 13 ion channel, 7 kinase, 7 nuclear hormone receptor, 6 transporter, 4 protease, 2 neurotransmitter metabolism, 2 lipid metabolism, 2 oxidoreductase, and 1 phosphodiesterase assays.
# HIV-1 = assay: microbe, parasite or virus in culture; conditions: Human immunodeficiency virus 1, PBMC
# Procedure: IC50 values were determined, and a persistence ratio was calculated for each compound. GFP, green fluorescent protein; hpi, hours post-infection; IC50, half maximal inhibitory concentration.
# Assay media in each well were then evacuated and the cells resuspended using the gentle setting on the BlueWasher (BlueCatBio; Lebanon, NH, USA). Centrifugation and wash steps were repeated to ensure removal of extracellular compound.
# MT4-GFP cells were infected with WT R8 virus, and PBMCs were infected with pNLG1-P2A-GFP. […] IC50 values were determined by nonlinear 4-parameter curve fitting of the data. A persistence ratio was calculated for each compound by dividing the IC50 from variable B (IC50B) by the IC50 from variable A (IC50A).
Compound,IC50 (HIV-1IIIB) [nM],Geometric Mean fold-change (HIV-1 subtypes; WT Subtype A),Geometric Mean fold-change (HIV-1 subtypes; WT Subtype A1),Fold-Change in IC50 vs CNDO control virus (HIV-1 subtypes; WT Subtype A1 clinical isolates),Geometric Mean fold-change (HIV-1 subtypes; WT Subtype AE),Geometric Mean fold-change (HIV-1 subtypes; WT Subtype AG),Geometric Mean fold-change (HIV-1 subtypes; WT Subtype B),Geometric Mean fold-change (HIV-1 subtypes; WT Subtype BF),Geometric Mean fold-change (HIV-1 subtypes; WT Subtype C),Geometric Mean fold-change (HIV-1 subtypes; WT Subtype D),Geometric Mean fold-change (HIV-1 subtypes; WT Subtype F1),Geometric Mean fold-change (HIV-1 subtypes; WT Subtype G),Geometric Mean fold-change (HIV-1 subtypes; WT Subtype H),Fold-Change in IC50 vs CNDO control virus (HIV-1 subtypes; WT Subtype H clinical isolates),Off-target activity [1],IC50 [1] [nM],"IC50 (HIV-1; 48 h, read-out: Persistence assay IC50B, PBMCs) [nM]","IC50 (HIV-1; read-out: Persistence assay IC50A, PBMCs) [nM]"
"C#C[C@]1(CO)O[C@@H](n2ccc3c(N)nc(Cl)nc32)C[C@@H]1O [Compound 12, (2R,3S,5R)-5-(4-amino-2-chloro-7H-pyrrolo[2,3-d]pyrimidin-7-yl)-2-ethynyl-2-(hydroxymethyl)tetrahydrofuran-3-ol]",0.14,1.0,0.9,0.96 and 0.93 and 0.73,0.6,1.0,0.9,0.8,1.0,0.7,0.8,0.752,0.55,0.72 and 0.42,no off-target activities,> 10000,18.1 ± 4.8,1.2 ± 0.2
C#C[C@]1(COP(=O)(O)OP(=O)(O)OP(=O)(O)O)O[C@@H](n2ccc3c(N)nc(Cl)nc32)C[C@@H]1O [MK-8527-TP],–,–,–,–,–,–,–,–,–,–,–,–,–,–,no off-target activities,> 10000,–,–
